Experimental data as given in ChEMBL document CHEMBL4382229, “Benzofuran derivatives and their anti-tubercular, anti-bacterial activities” (Eur J Med Chem, 2019).
Values after ≈ are worked out from the molar mass of the structure shown.

Assays:
Staphylococcus aureus [1] = assay: Antibacterial activity against Staphylococcus aureus by broth dilution method; type: functional
Escherichia coli [2] = assay: Antibacterial activity against Escherichia coli by broth dilution method; type: functional
Bacillus subtilis [3] = assay: Potency index, ratio of ciprofloxacin MIC to test compound MIC for Bacillus subtilis; type: functional
Staphylococcus aureus [4] = assay: Potency index, ratio of ciprofloxacin MIC to test compound MIC for Staphylococcus aureus; type: functional
Pseudomonas aeruginosa [5] = assay: Antibacterial activity against Pseudomonas aeruginosa by broth dilution method; type: functional
Escherichia coli [6] = assay: Potency index, ratio of ciprofloxacin MIC to test compound MIC for Escherichia coli; type: functional
Bacillus subtilis [7] = assay: Antibacterial activity against Bacillus subtilis by broth dilution method; type: functional
Bacillus spizizenii [8] = assay: Antibacterial activity against Bacillus subtilis ATCC 6633 after 24 hrs by broth dilution method; type: functional
Escherichia coli [9] = assay: Antibacterial activity against Escherichia coli ATCC 11229 after 24 hrs by broth dilution method; type: functional
Proteus vulgaris [10] = assay: Antibacterial activity against Proteus vulgaris […] after 24 hrs by broth dilution method; type: functional
Staphylococcus aureus [11] = assay: Antibacterial activity against Staphylococcus aureus ATCC 29213 after 24 hrs by broth dilution method; type: functional
Staphylococcus aureus [12] = assay: Antibacterial activity against Staphylococcus aureus ATCC 6538 after 24 hrs by broth dilution method; type: functional
Pseudomonas aeruginosa [13] = assay: Antibacterial activity against Pseudomonas aeruginosa assessed as zone of inhibition at 50 ug/ml after 3 days by filter paper disc method; type: functional; settings: 72 h, read-out: IZ
Escherichia coli [14] = assay: Antibacterial activity against Escherichia coli assessed as zone of inhibition at 50 ug/ml after 3 days by filter paper disc method; type: functional; settings: 72 h, read-out: IZ
Staphylococcus aureus [15] = assay: Antibacterial activity against Staphylococcus aureus assessed as zone of inhibition at 50 ug/ml after 3 days by filter paper disc method; type: functional; settings: 72 h, read-out: IZ
Bacillus subtilis [16] = assay: Antibacterial activity against Bacillus subtilis assessed as zone of inhibition at 50 ug/ml after 3 days by filter paper disc method; type: functional; settings: 72 h, read-out: IZ
[17] = system: Mycobacterium tuberculosis; assay: Antitubercular activity against Mycobacterium tuberculosis H37Rv infected in BALB/c mouse assessed as reduction in bacterial load in lungs at 200 mg/kg, po administered once daily via gavage for 5 consecutive days per week for 2 weeks; type: functional
[18] = system: Mycobacterium tuberculosis; assay: Antitubercular activity against Mycobacterium tuberculosis Erdman infected in BALB/c mouse assessed as reduction in bacterial load in lungs at 300 mg/kg, po administered once daily via gavage starting from 27 days post infection for 5 consecutive days per week for 4 weeks; type: functional
[19] = system: Mycobacterium tuberculosis; assay: Antitubercular activity against Mycobacterium tuberculosis Erdman infected in BALB/c mouse assessed as reduction in bacterial load in spleen at 300 mg/kg, po administered once daily via gavage starting from 27 days post infection for 5 consecutive days per week for 4 weeks; type: functional
[20] = system: Mycobacterium tuberculosis; assay: microbe, parasite or virus in culture; settings: MC2 7000, 144 h
Description: Antimycobacterial activity against Mycobacterium tuberculosis MC2 7000 after 6 days by alamar blue assay

Klebsiella pneumoniae = assay: Antibacterial activity against Klebsiella pneumoniae assessed as zone of inhibition at 1 mg/ml after 32 hrs by agar-well diffusion method; type: functional; settings: read-out: IZ
Proteus vulgaris [21] = assay: Antibacterial activity against Proteus vulgaris after 24 hrs; type: functional
Bacillus spizizenii [22] = assay: Antibacterial activity against Bacillus subtilis ATCC 6633 after 24 hrs; type: functional; settings: ATCC 6633, 24 h
Pseudomonas aeruginosa [23] = assay: Antibacterial activity against Pseudomonas aeruginosa assessed as zone of inhibition at 1 mg/ml after 32 hrs by agar-well diffusion method; type: functional; settings: read-out: IZ
Staphylococcus aureus [24] = assay: Antibacterial activity against Staphylococcus aureus ATCC 25923 after 24 hrs; type: functional; settings: ATCC 25923, 24 h
Escherichia coli [25] = assay: Antibacterial activity against Escherichia coli ATCC 25922 after 24 hrs; type: functional; settings: ATCC 25922, 24 h
Staphylococcus aureus [26] = assay: Antibacterial activity against Staphylococcus aureus assessed as zone of inhibition at 1 mg/ml after 32 hrs by agar-well diffusion method; type: functional; settings: read-out: IZ
Escherichia coli [27] = assay: Antibacterial activity against Escherichia coli assessed as zone of inhibition at 1 mg/ml after 32 hrs by agar-well diffusion method; type: functional; settings: read-out: IZ
Proteus vulgaris [28] = assay: Potency index, ratio of norfloxacin MIC to test compound MIC for Proteus vulgaris; type: functional
Pseudomonas aeruginosa [29] = assay: Antibacterial activity against Pseudomonas aeruginosa MTCC 1034 after 24 hrs by broth dilution method; type: functional; settings: MTCC 1034, 24 h
Pseudomonas aeruginosa [30] = assay: Potency index, ratio of streptomycin MIC to test compound MIC for Pseudomonas aeruginosa MTCC 1034; type: functional
Bacillus subtilis [31] = assay: Potency index, ratio of streptomycin MIC to test compound MIC for Bacillus subtilis MTCC 1134; type: functional
Escherichia coli [32] = assay: Potency index, ratio of streptomycin MIC to test compound MIC for Escherichia coli MTCC 1559; type: functional
Escherichia coli [33] = assay: Antibacterial activity against Escherichia coli MTCC 1559 after 24 hrs by broth dilution method; type: functional; settings: MTCC 1559, 24 h
Bacillus subtilis [34] = assay: Antibacterial activity against Bacillus subtilis MTCC 1134 after 24 hrs by broth dilution method; type: functional; settings: MTCC 1134, 24 h
Escherichia coli [35] = assay: Antibacterial activity against Escherichia coli NCIM 2064 assessed as zone of inhibition at 1 ug/ml after 24 hrs by agar diffusion method; type: functional; settings: NCIM 2064, 24 h, read-out: IZ
Escherichia coli [36] = assay: Antibacterial activity against Escherichia coli ATCC 25922 assessed as diameter of inhibition zone at 5 ug/ml after 24 hrs by agar disc diffusion method; type: functional; settings: ATCC 25922, 24 h, read-out: IZ
Pseudomonas aeruginosa [37] = assay: Antibacterial activity against Pseudomonas aeruginosa NCIB 8650 assessed as zone of inhibition at 1 ug/ml after 24 hrs by agar diffusion method; type: functional; settings: NCIB 8650, 24 h, read-out: IZ
Bacillus subtilis [38] = assay: Antibacterial activity against Bacillus subtilis NCIM 2439 assessed as zone of inhibition at 1 ug/ml after 24 hrs by agar diffusion method; type: functional; settings: NCIM 2439, 24 h, read-out: IZ
Pseudomonas aeruginosa [39] = assay: Antibacterial activity against Pseudomonas aeruginosa ATCC 27953 assessed as diameter of inhibition zone at 5 ug/ml after 24 hrs by agar disc diffusion method; type: functional; settings: ATCC 27953, 24 h, read-out: IZ
Staphylococcus aureus [40] = assay: Antibacterial activity against Staphylococcus aureus NCIM 2079 assessed as zone of inhibition at 1 ug/ml after 24 hrs by agar diffusion method; type: functional; settings: NCIM 2079, 24 h, read-out: IZ
Escherichia coli [41] = assay: Antibacterial activity against Escherichia coli assessed as diameter of inhibition zone at 250 ug/ml after 24 hrs by disc diffusion method; type: functional; settings: read-out: DIZ
Staphylococcus aureus [42] = assay: Antibacterial activity against Staphylococcus aureus assessed as diameter of inhibition zone at 250 ug/ml after 24 hrs by disc diffusion method; type: functional; settings: read-out: DIZ
[43] = system: Mycobacterium tuberculosis; assay: Antitubercular activity against Mycobacterium tuberculosis Erdman infected in BALB/c mouse assessed as reduction in bacterial load in spleen at 25 mg/kg, po administered once daily via gavage starting from 27 days post infection for 5 consecutive days per week for 4 weeks; type: functional
[44] = system: Mycobacterium tuberculosis; assay: Antitubercular activity against Mycobacterium tuberculosis H37Rv infected in BALB/c mouse assessed as reduction in bacterial load in lungs at 10 mg/kg, po administered once daily via gavage for 5 consecutive days per week for 2 weeks; type: functional
[45] = system: Mycobacterium tuberculosis; assay: Antitubercular activity against Mycobacterium tuberculosis Erdman infected in BALB/c mouse assessed as reduction in bacterial load in lungs at 25 mg/kg, po administered once daily via gavage starting from 27 days post infection for 5 consecutive days per week for 4 weeks; type: functional

Cc1ccc2occ(-c3cc4ccccc4oc3=O)c2c1
MIC (Staphylococcus aureus [1]): 0.2 µg/mL (≈ 0.724 µM) | MIC (Escherichia coli [2]): 0.2 µg/mL (≈ 0.724 µM) | Ratio (Bacillus subtilis [3]): >=5 | Ratio (Staphylococcus aureus [4]): >=5 | MIC (Pseudomonas aeruginosa [5]): 6.25 to 100 µg/mL (≈ 22.6 to 362 µM) | Ratio (Escherichia coli [6]): >=5 | MIC (Bacillus subtilis [7]): 0.4 µg/mL (≈ 1.45 µM)

GENTAMICIN
MIC (Bacillus spizizenii [8]): 1.62 to 3.12 µg/mL | MIC (Escherichia coli [9]): 1.62 to 3.12 µg/mL | MIC (Proteus vulgaris [10]): 1.62 to 3.12 µg/mL | MIC (Staphylococcus aureus [11]): 1.6 to 3.1 µg/mL | MIC (Staphylococcus aureus [12]): 1.62 to 3.12 µg/mL

O=C(c1ccc(Br)cc1)c1oc2ccc(Br)cc2c1/C=C/c1c[nH]c2ccccc12
MIC (Bacillus spizizenii [8]; ATCC 6633, 24 h): 3.12 to 6.25 µg/mL (≈ 6 to 12 µM) | MIC (Escherichia coli [9]; ATCC 11229, 24 h): 3.12 to 6.25 µg/mL (≈ 6 to 12 µM) | MIC (Proteus vulgaris [10]): 3.12 to 6.25 µg/mL (≈ 6 to 12 µM) | MIC (Staphylococcus aureus [12]; ATCC 6538, 24 h): 3.12 to 6.25 µg/mL (≈ 6 to 12 µM)

O=C1/C(=C\c2cn(-c3ccccc3)nc2-c2cccs2)Oc2cc(Cl)ccc21
zone of inhibition at 50 µg/mL (Pseudomonas aeruginosa [13]): 13 to 33 mm | zone of inhibition at 50 µg/mL (Escherichia coli [14]): 13 to 33 mm | zone of inhibition at 50 µg/mL (Staphylococcus aureus [15]): 13 to 33 mm | zone of inhibition at 50 µg/mL (Bacillus subtilis [16]): 13 to 33 mm

CNC(=O)c1c(-c2ccc(O)cc2)oc2ccc(O)c(CN3CCCCC3)c12
Activity [17]: 6.8 log10CFU | Activity [18]: 0.9 log10CFU | Activity [19]: 2.2 log10CFU | MIC [20]: 0.09 µM (≈ 0.0342 µg/mL)

CC1(C)S[C@@H]2[C@H](NC(=O)[C@H](N)c3ccccc3)C(=O)N2[C@H]1C(=O)O [AMPICILLIN]
zone of inhibition at 1000 µg/mL (Klebsiella pneumoniae): 20 to 28 mm | zone of inhibition at 50 µg/mL (Pseudomonas aeruginosa [13]): 10 to 30 mm | MIC (Proteus vulgaris [21]): 3.9 µg/mL (≈ 11.2 µM) | zone of inhibition at 50 µg/mL (Escherichia coli [14]): 10 to 30 mm | MIC (Bacillus spizizenii [22]): 3.9 µg/mL (≈ 11.2 µM) | zone of inhibition at 1000 µg/mL (Pseudomonas aeruginosa [23]): 20 to 28 mm | MIC (Staphylococcus aureus [24]): 0.48 µg/mL (≈ 1.37 µM) | MIC (Escherichia coli [25]): 3.9 µg/mL (≈ 11.2 µM) | zone of inhibition at 50 µg/mL (Staphylococcus aureus [15]): 10 to 30 mm | zone of inhibition at 50 µg/mL (Bacillus subtilis [16]): 10 to 30 mm | zone of inhibition at 1000 µg/mL (Staphylococcus aureus [26]): 20 to 28 mm | zone of inhibition at 1000 µg/mL (Escherichia coli [27]): 20 to 28 mm

O=C1Nc2c(O)cccc2/C1=N/NC(=O)c1cc2ccccc2o1
MIC (Proteus vulgaris [21]): 31.2 µg/mL (≈ 97.3 µM) | Ratio (Proteus vulgaris [28]): 2

O=C1Nc2ccccc2/C1=N/NC(=O)c1cc2ccccc2o1
MIC (Proteus vulgaris [21]): 250 to 500 µg/mL (≈ 819 to 1640 µM) | MIC (Bacillus spizizenii [22]): 250 to 500 µg/mL (≈ 819 to 1640 µM) | MIC (Staphylococcus aureus [24]): 250 to 500 µg/mL (≈ 819 to 1640 µM) | MIC (Escherichia coli [25]): 250 to 500 µg/mL (≈ 819 to 1640 µM)

Cc1ccc(-c2cc(-c3cc4ccccc4o3)nc(N)n2)s1
MIC (Pseudomonas aeruginosa [29]): 4.32 to 6.32 µg/mL (≈ 14.1 to 20.6 µM) | Ratio (Pseudomonas aeruginosa [30]): >3 | Ratio (Bacillus subtilis [31]): >3 | Ratio (Escherichia coli [32]): >3 | MIC (Escherichia coli [33]): 4.32 to 6.32 µg/mL (≈ 14.1 to 20.6 µM) | MIC (Bacillus subtilis [34]): 4.32 to 6.32 µg/mL (≈ 14.1 to 20.6 µM)

O=C(N[C@H](CO)[C@H](O)c1ccc([N+](=O)[O-])cc1)C(Cl)Cl [CHLORAMPHENICOL]
zone of inhibition at 1 µg/mL (Escherichia coli [35]): 21 to 32 mm | zone of inhibition at 5 µg/mL (Escherichia coli [36]): 21 to 32 mm | zone of inhibition at 1 µg/mL (Pseudomonas aeruginosa [37]): 21 to 32 mm | zone of inhibition at 1 µg/mL (Bacillus subtilis [38]): 21 to 32 mm | zone of inhibition at 5 µg/mL (Pseudomonas aeruginosa [39]): 21 to 32 mm | zone of inhibition at 1 µg/mL (Staphylococcus aureus [40]): 21 to 32 mm | zone of inhibition at 250 µg/mL (Escherichia coli [41]): 17 mm | zone of inhibition at 250 µg/mL (Staphylococcus aureus [42]): 27 mm

NNC(=O)c1ccncc1 [ISONIAZID]
Activity [43]: 2.5 log10CFU | Activity [44]: 6.7 log10CFU | Activity [45]: 1.1 log10CFU

O=C1Nc2c(cccc2[N+](=O)[O-])/C1=N/NC(=O)c1cc2ccccc2o1
MIC (Proteus vulgaris [21]): 31.2 µg/mL (≈ 89.2 µM) | Ratio (Proteus vulgaris [28]): 2
